In series [1] the target is T1, β2c subunit of isolated human 20S proteasome (Homo sapiens, UniProt Q99436).
T1 construct: purchased Enzo Life Sciences
As to the kind of experiment: Proteasome inhibition assay (20 S Proteasome Assay Kit, Bz‐VGR‐AMC). Type of series: biochemical. As to conditions: c = 1 µM, n=1; read-out: Inhibition cCP β2. The gist of the method:
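Isolated 20S proteasome (200 ng/well) was preincubated 30 min with inhibitor, then Bz-VGR-AMC (100 μM final) was added for 60 min and fluorescence read. Single-point residual activity was taken at 100 nM or 1 μM; IC50 was fitted from duplicates, mean of three independent experiments.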

A short description of a further series: in vitro. The settings on record: human. The format is cell-based. The method, then:
Remarkably, in THP‐1 cells the initial cytotoxicity is increasing for 3 compared to 27 until 14 h treatment (9‐fold) but is approaching to the end of the assay.
Time‐dependent determination of cell viability. For the determination of time‐dependent cytotoxic activity 5.000 cells per well were plated in a white 384 well‐plate in RPMI‐1640 medium supplemented with 0.1 % FBS. Real‐Time Glo MT cell viability assay (Promega) and inhibitor were added to the final concentration and luminescence was determined using a Tecan M1000 microplate reader at the time points indicated (SI chapter 2b, Figure S9–S17, Table S2).

In series [2] the target is T2, β1c subunit of isolated human 20S proteasome (Homo sapiens, UniProt P28072).
T2 construct: purchased Enzo Life Sciences
As to the kind of experiment: Proteasome inhibition assay (20 S Proteasome Assay Kit, Z‐LLE‐AMC). The format is biochemical. The settings on record: c = 1 µM, n=1; read-out: Inhibition cCP β1. The method, boiled down: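 Isolated human 20S proteasome (200 ng/well) preincubated 30 min with inhibitor, then 100 μM final Suc-LLVY-AMC (β5c, β5i) or Z-LLE-AMC (β1c) added for 60 min; fluorescence read. Residual activity at 100 nM final (n=3; β5c, β5i) or 1 μM (n=1, incl. β1c). IC50s: technical duplicates, mean of three experiments.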

In the case of `Cc1cc(C)c(Oc2ccccc2)cc1NC(=O)C(=O)[C@H](CC(C)C)NC(=O)[C@H](CC(C)C)NC(=O)[C@H](CC(C)C)NC(=O)c1cc(Cl)ccc1Cl` [Compound 27, 2,5‐Dichloro‐N‐((S)‐1‐(((S)‐1‐(((S)‐1‐((2,4‐dimethyl‐5‐phenoxyphenyl)amino)‐5‐methyl‐1,2‐dioxo‐hexan‐3‐yl)amino)‐4‐methyl‐1‐oxopentan‐2‐yl)amino)‐4‐methyl‐1‐oxopentan‐2‐yl)benzamide], the results for the inhibition at 1 µM in series [1] and in series [2] were 6% and -48%, respectively. The IC50 – broadly, the point on the concentration scale where inhibition reaches its midpoint – at 13 h in the series “in vitro” is 300 to 600 nM.

The values are drawn from publication PMC6916368, “Cell‐Based Optimization of Covalent Reversible Ketoamide Inhibitors Bridging the Unprimed to the Primed Site of the Proteasome β5 Subunit” (Chemmedchem, 2019).
